The record followed here is ChEMBL document CHEMBL5505957 (Eur J Med Chem, 2024).

For one data set, the target named is T1, Protein O-GlcNAcase (Homo sapiens, UniProt O60502).
T1 sequence (O60502 whole entry): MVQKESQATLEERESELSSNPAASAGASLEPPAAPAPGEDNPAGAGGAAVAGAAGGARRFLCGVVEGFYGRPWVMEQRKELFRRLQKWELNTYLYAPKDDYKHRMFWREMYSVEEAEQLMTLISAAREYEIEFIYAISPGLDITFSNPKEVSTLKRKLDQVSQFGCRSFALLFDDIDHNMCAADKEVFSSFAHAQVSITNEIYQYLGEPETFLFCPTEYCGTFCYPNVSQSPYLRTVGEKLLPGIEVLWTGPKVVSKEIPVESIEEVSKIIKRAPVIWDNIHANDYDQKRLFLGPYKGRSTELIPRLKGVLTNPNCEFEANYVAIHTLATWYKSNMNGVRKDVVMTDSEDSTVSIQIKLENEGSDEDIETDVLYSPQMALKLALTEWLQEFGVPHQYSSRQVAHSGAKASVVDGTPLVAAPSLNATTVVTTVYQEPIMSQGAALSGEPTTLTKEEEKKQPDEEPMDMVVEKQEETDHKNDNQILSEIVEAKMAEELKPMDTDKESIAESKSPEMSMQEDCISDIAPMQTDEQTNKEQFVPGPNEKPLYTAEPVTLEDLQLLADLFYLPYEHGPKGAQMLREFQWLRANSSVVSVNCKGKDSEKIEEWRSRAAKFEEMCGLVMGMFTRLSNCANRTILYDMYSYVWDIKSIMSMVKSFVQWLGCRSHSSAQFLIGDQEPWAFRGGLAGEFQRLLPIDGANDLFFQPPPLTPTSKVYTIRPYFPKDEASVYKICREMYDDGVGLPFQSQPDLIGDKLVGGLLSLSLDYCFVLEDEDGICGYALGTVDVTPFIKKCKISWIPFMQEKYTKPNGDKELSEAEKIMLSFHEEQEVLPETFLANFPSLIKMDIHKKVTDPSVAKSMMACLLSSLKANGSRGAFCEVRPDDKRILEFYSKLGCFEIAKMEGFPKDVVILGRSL

For a further data set, the system named is Rattus norvegicus. Briefly: Anti-inflammatory activity against carrageenan-induced paw edema in Sprague-Dawley rat assessed as inhibition of paw edema.
A short description of data set [1]: Inhibition of Influenza A virus H1N1 neuraminidase.
Another data set addresses Cholinesterase (Equus caballus, UniProt P81908). The data set can be described thus: Inhibition of equine serum BuChE using butyrylthiocholine chloride as substrate by Ellman's method. In general terms: Ellman's reagent forms a yellow product with free thiols.
Data set [2] in a line: Inhibition of Serratia marcescens Chitinase B.
The subject of data set [3] is Aspergillus fumigatus. Briefly: Antifungal activity against Aspergillus fumigatus by CLSI based broth microdilution method. (In general: Dilution methods test growth across graded concentrations, often in twofold steps.)
Data set [4] relates to Aspergillus fumigatus. The data set can be described thus: Antimicrobial activity against Aspergillus fumigatus assessed as fungal growth inhibition.
Data set [5] addresses T2, M-phase inducer phosphatase 3 (Homo sapiens, UniProt P30307).
T2 sequence (P30307 whole entry): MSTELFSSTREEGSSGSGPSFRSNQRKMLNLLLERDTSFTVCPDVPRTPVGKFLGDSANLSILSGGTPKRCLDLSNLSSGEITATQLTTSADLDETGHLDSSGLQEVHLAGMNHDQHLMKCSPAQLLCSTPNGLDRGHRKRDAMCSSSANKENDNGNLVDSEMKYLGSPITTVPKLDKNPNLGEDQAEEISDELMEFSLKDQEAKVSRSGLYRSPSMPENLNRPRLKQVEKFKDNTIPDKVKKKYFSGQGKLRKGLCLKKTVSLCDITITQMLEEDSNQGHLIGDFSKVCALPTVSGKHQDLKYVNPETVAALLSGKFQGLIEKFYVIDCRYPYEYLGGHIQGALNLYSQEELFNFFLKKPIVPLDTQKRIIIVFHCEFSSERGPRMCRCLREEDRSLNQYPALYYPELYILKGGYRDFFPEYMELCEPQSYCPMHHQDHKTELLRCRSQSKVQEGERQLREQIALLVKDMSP
Briefly: Inhibition of full-length recombinant human CDC25C incubated for 5 to 8 mins by fluorescence based assay.

For data set [6], the target named is T3, Human immunodeficiency virus type 1 protease (Human immunodeficiency virus 1, UniProt Q72874).
The subject of data set [7] is Human immunodeficiency virus 1. Briefly: Antiviral activity against HIV-1 infected in human MT4 cells assessed as inhibition of virus-induced cytopathic effect measured after 5 days by spectrophotometric MTT assay. Conditions: Human immunodeficiency virus 1, MT4, 120 h. (Damage to the host cells serves as the signal in cytopathic effect assays.)
Data set [8] concerns the target T3, Human immunodeficiency virus type 1 protease. The data set can be described thus: Binding affinity to HIV-1 protease assessed as inhibition constant.
For data set [9], the system named is Human immunodeficiency virus 1. The data set can be described thus: microbe, parasite or virus in culture. The following applies: Human immunodeficiency virus 1, C8166.
Data set [10] is described as follows: Cytotoxicity against African green monkey Vero E6 cells assessed as reduction in cell viability measured after 72 hrs by MTS assay.
In data set [11] the target is Replicase polyprotein 1ab (Severe acute respiratory syndrome coronavirus 2, UniProt P0DTD1).
A short description of data set [12]: Cytotoxicity against MDCK cells assessed as reduction in cell viability incubated for 48 hrs by MTT assay. The following applies: dog.
Data set [13] deals with Human immunodeficiency virus 1. The data set can be described thus: microbe, parasite or virus in culture. Conditions: Human immunodeficiency virus 1, C8166. The source holds these as a separate data set.
Data set [14] concerns Human immunodeficiency virus 1. Briefly: Anti-HIV activity against wild type HIV-1 IIIB infected in human MT4 cells assessed as inhibition of virus-induced cytopathic effect incubated for 5 days by MTT assay. The following applies: Human immunodeficiency virus 1, IIIB, MT4, 120 h.
Data set [15] can be described thus: Inhibition of Serratia marcescens Chitinase A.

The structures appear in SMILES notation. ≈ marks a conversion by molar mass, not a printed value.

Sequence of Cholinesterase (P81908 whole entry): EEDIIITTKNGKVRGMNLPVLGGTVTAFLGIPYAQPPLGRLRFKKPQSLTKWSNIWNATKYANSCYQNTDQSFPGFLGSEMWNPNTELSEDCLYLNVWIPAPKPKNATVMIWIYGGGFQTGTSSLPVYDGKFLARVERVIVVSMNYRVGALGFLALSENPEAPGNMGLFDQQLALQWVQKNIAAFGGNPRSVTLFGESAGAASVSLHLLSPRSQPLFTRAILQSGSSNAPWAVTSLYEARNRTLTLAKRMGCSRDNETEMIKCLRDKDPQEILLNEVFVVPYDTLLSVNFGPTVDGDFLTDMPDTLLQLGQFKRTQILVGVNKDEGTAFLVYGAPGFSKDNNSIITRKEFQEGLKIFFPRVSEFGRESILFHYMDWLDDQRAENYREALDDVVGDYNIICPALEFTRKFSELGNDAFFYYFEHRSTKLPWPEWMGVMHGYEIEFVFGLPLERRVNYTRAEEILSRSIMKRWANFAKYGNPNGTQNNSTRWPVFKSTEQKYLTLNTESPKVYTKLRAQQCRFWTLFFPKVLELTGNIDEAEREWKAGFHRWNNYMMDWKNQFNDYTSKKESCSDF

As usually defined, the IC50 is the concentration at which inhibition is half-maximal. `CO[C@@H]1O[C@H](CO)[C@@H](O)[C@H](O)[C@H]1n1cc(CCc2ccccc2)nn1`: the IC50 against Protein O-GlcNAcase is 0.5 µM.

On to `CO[C@@H]1O[C@H](CO)[C@@H](O)[C@H](O)[C@H]1n1cc(CNc2ccccc2)nn1`, for which the half-inhibitory concentration (IC50) at Protein O-GlcNAcase is 0.52 µM.

For orientation: ED50 means the dose at which the effect has come halfway, by size or by number of responders. For the compound `Cc1cc(-n2cc(-c3ccc(F)cc3)nn2)n(-c2ccc(S(C)(=O)=O)cc2)n1`, the ED50 with Rattus norvegicus is 0.44 mg/kg.

Take `CC(=O)O[C@H]1[C@H](OCc2cn(CC3=NCCS3)nn2)OC[C@@H](OC(C)=O)[C@H]1OC(C)=O`: the 50% inhibitory concentration (IC50) in [1] stood at 1.64 µM.

Consider `O=C(CCCCC1CCSS1)NCc1cn(CCCCOc2ccc3c(c2)OCCC3=O)nn1` (configuration not stated), for which, at Cholinesterase, the IC50 was found to be 7.55 µM.

`CNC(=O)NC(=N)NCCC[C@@H](NC(=O)Cn1nncc1CO/N=C/c1ccnc2ccccc12)C(=O)N(Cc1ccccc1)Cc1ccccc1` registered a half-inhibitory concentration (IC50) in data set [2] of 0.022 µM.

The term MIC denotes the least concentration at which growth counts as inhibited. For the compound `C=CCc1ccc(OCc2cn([C@H]3O[C@H](COC(C)=O)[C@@H](OC(C)=O)[C@H](OC(C)=O)[C@H]3OC(C)=O)nn2)c(OC)c1`, the 50% inhibitory concentration (IC50) in the data set with Aspergillus fumigatus [3] was found to be 5.42 µM. Also, in the data set with Aspergillus fumigatus [4], the minimal inhibitory concentration (MIC) was determined as 10.9 µM (≈ 6.25 µg/mL).

Consider `CC(NC1=C(Cl)C(=O)c2cccnc2C1=O)c1cn(Cc2ccc(CO)cc2)nn1` (configuration not stated), for which the half-inhibitory concentration (IC50) in [5] amounted to 0.06 µM.

In [6], `COc1ccc(S(=O)(=O)N(CC(C)C)C[C@@H](O)[C@H](Cc2ccccc2)n2cc(CNC(=O)c3ccncc3)nn2)cc1` yielded a half-inhibitory concentration (IC50) of 0.01 µM.

`CO[C@@H]1O[C@H](CO)[C@@H](O)[C@H](O)[C@H]1n1cc(COc2ccccc2)nn1` displayed a 50% inhibitory concentration (IC50) at Protein O-GlcNAcase of 0.72 µM.

As to `COC(=O)[C@@H](NC(=O)OCc1cn([C@@H](Cc2ccccc2)[C@H](O)CN(CC(C)C)S(=O)(=O)c2ccc(OC)cc2)nn1)c1ccccc1`, in data set [6], inhibition was half-maximal at 0.01 µM (IC50).

In [1], `COC(=O)[C@@H](C)NP(=O)(OCC1OC(n2cc(CN3CCC(=O)NC3=O)nn2)C(O)C1O)Oc1ccccc1` (some centres not stated) yielded an IC50 of 25 µM.

With `CNC(=O)NC(=O)NCCC[C@@H](NC(=O)CN)C(=O)N(Cc1ccccc1)Cc1ccccc1`, the IC50 in data set [2] worked out at 0.58 µM.

Broadly, the EC50 is the concentration at which the effect is half-maximal. On to `Cc1c(Cc2c(Cl)cccc2Cl)nc(SCc2cn(Cc3ccc(S(N)(=O)=O)cc3)nn2)[nH]c1=O`, for which the half-maximal effective concentration (EC50) in [7] turned out to be 3.22 µM.

`Cc1cc(-n2cc(-c3ccc(N)cc3)nn2)n(-c2ccc(S(C)(=O)=O)cc2)n1`: the 50% effective dose (ED50) in the data set with Rattus norvegicus was 0.12 mg/kg.

As a reminder, the Ki is the equilibrium dissociation constant of an inhibitor or competing ligand from its target. With `COc1ccc(S(=O)(=O)N(CC(C)C)C[C@@H](O)C(Cc2ccccc2)n2cc(COC(=O)NC3c4ccccc4C[C@H]3O)nn2)cc1` (single isomer, unassigned), in [8], the inhibition constant Ki amounted to 0.0017 µM. The same compound came in with a 50% inhibitory concentration (IC50) in [6] of 0.006 µM.

Compound `COc1ccc(S(=O)(=O)N(CC(C)C)C[C@@H](O)[C@H](Cc2ccccc2)n2cc(CNC(=O)N[C@H]3c4ccccc4C[C@H]3O)nn2)cc1` yielded a concentration for half-maximal inhibition (IC50) in data set [9] of 0.046 µM.

In the case of `CC1=NN(c2ccc(Cl)cc2)C(=O)/C1=C\c1ccc(OCc2cn(CC(=O)NCc3ccc(C(=O)O)cc3)nn2)cc1`, the half-inhibitory concentration (IC50) at 72 h in data set [10] stood at 22.1 µM. In [11], this compound yielded a half-inhibitory concentration (IC50) of 3.16 µM.

A word on the CC50: it is the concentration that lowers cell viability or growth by half. With `Cc1[nH]c(=O)[nH]c(=O)c1CCCc1cn(C2OC(CO)C(O)C2O)nn1` (configuration not stated), in data set [12], the CC50 at 48 h was found to be 79 µM.

For the compound `COc1ccc(S(=O)(=O)N(CC(C)C)C[C@@H](O)[C@H](Cc2ccccc2)n2cc(CNC(=O)c3ccc(CNC(=O)OC(C)(C)C)cc3)nn2)cc1`, the IC50 in data set [13] stood at 0.017 µM; in data set [9] it was 0.052 µM.

`COC(=O)c1ccc(-n2cc(-c3cc(C)c(Oc4ccnc(Nc5ccc(C#N)cc5)n4)c(C)c3)nn2)cc1`: the half-inhibitory concentration (IC50) in [14] was 0.013 µM.

For the compound `CNC(=O)NC(=N)NCCC[C@@H]1NC(=O)[C@@H](C)NC(=O)C[C@@H](C(=O)O)NC(=O)C[C@@H](C(=O)O)NC(=O)[C@H](Cc2ccccc2)N(C)C1=O` [ARGIFIN], the half-inhibitory concentration (IC50) in [2] amounted to 6.4 µM; in data set [15], 0.025 µM.
